Experiment [1] has as its system inflammatory pain model (complete Freund's adjuvant). Description: Inflammatory pain model (complete Freund's adjuvant), mechanical pain threshold. The class given is in vivo, SD rats. The conditions noted are these: rats. As for the experimental part:
4 SD rats with a body weight of 200-250 g were used as a blank control (NC), and normal saline was injected into the soles of the left feet of the rats. Inflammatory pain models of 18 rats were constructed, that is to say, 100 μL of a complete Freund's adjuvant was injected into soles of the left feet of the rats, mechanical pain thresholds of the left feet were detected by an ALMEMO2490 data collector 24 hours later, 2 rats with a pain threshold of greater than 15 were abandoned, and the other 16 rats were randomly divided into 4 groups with 4 rats in each group and then administered with water as a positive control (PC), SP3101 (20 mg/kg), PQQ (20 mg/kg) and ibuprofen (25 mg/kg/day) by gavage, respectively.

The next experiment deals with AMPK. Description: AMPK agonist test in RAW264.7 cells (protein hybridization, p-AMPK). The class given is cell-based. The conditions noted are these: 0.1 μM, 24 hours. As for the experimental part:
RAW264.7 cells were inoculated into two six-well plates and enabled to grow to a density of about 90%, and SP3101 and SP3102 of different concentrations were added, respectively. 24 hours later, the cells were lysed with a radio immunoprecipitation assay (RIPA) lysis buffer, and the expression of proteins was detected by protein hybridization.
Phosphorylation of serine at the 127th site of AMPK is used as an activation marker. […] It can be seen that the compounds, represented by the SP3101 and the SP3102, of the present invention are used as an AMPK agonist.

The subject of experiment [2] is movement of the mice in an open field. Description: Sedation test, open field test (OFT). In kind it is in vivo, B6 mice. The conditions noted are these: single intraperitoneal injection 20 or 50 mg/kg, 2 hours after administration. As for the experimental part:
A total of 15 12-week-old male B6 mice were selected and allowed to adapt to the environment for three days. The mice were randomly divided into 3 groups including: (1) a blank control group (n=5), (2) a low-dose SP3101 group at a dose of 20 mg/kg (n=5) and (3) a high-dose SP3101 group at a dose of 50 mg/kg (n=5). The mice were administered by intraperitoneal injection at a single dose according to the groups, where the mice in the blank control group were administered with an equal volume of normal saline by intraperitoneal injection. 2 hours after the administration, the mice were traced by a video tracking and detection system in an open field test (OFT), followed by behavioral evaluation.

In experiment [3] the test system is cisplatin-induced hyperalgesia. In words: Cisplatin chemotherapy pain model. The conditions noted are these: 40 mg/kg/day by gavage, cisplatin 2.3 mg/kg/day i.p., mice, Von Frey 0.4 g and 1.0 g. The class given is in vivo, B6 mice. The source says:
20 12-week-old male B6 mice were selected and allowed to adapt to the environment for three days.
On DAY 1, basic mechanical pain thresholds were detected by using Von Frey fibrils, the mice with abnormal pain thresholds were abandoned (no abnormal mice were found in this batch), and the pain thresholds were basically about 1.4-2.0 g. According to the basic pain thresholds, a pain threshold of 0.4 g was used in this test, and a pain threshold of 1.0 g was used in subsequent detection Behaviors such as foot lifting and foot licking were identified as positive responses.
On DAYS 1-5, after the basic mechanical pain thresholds were detected, the mice were randomly divided into the following groups: (1) a model control group (n=10) and (2) an SP3101 group (n=10) administered by gavage at a dose of 40 mg/kg/day, where the mice in the model control group were administered with double distilled water by gavage, and the mice in the two groups were administered with cisplatin prepared with normal saline (2.3 mg/kg/day) by intraperitoneal injection 0.5 hour later.
On DAYS 6-10, the mice were only administered with SP3101 and water by gavage, and on DAY 7, the mechanical pain thresholds were detected.
On DAYS 11-15, the operations on DAYS 1-5 were repeated, and on DAY 15, the mechanical pain thresholds were detected. […]

The subject of experiment [4] is MHV-A59 virus-induced lung inflammation. Description: MHV-A59 virus-induced lung inflammation of mice. In kind it is in vivo, C57BL/B6 mice. The conditions noted are these: 20 mg/kg/day by gavage for 5 days. As for the experimental part:
As viral pneumonia of C57BL/B6 mice can be induced by nasal dropping of an MHV-A59 virus, the ability of SP3101 to inhibit virus-induced lung inflammation of mice is studied using such model.
An MHV-A59 virus strain was purchased from Suzhou Xishan Biotechnology Co., Ltd. at a PFU/ml of 1.4×10^7.
6-week-old mice were divided into 3 groups with 8 mice in each group. After anesthesia, the mice in a blank control group were administered with normal saline through the noses, and viral pneumonia models of the other two groups were constructed as follows: 10 μL of an MHV was injected into the nose of each mouse at a PFU of 1.4×10^5 with 5 μL into the left nostril and the right nostril, respectively, and about 3-6 hours later, the mice woke up. The mice in a model treatment group were administered with an SP3101 aqueous solution by gavage at a dose of 20 mg/kg body weight/day (mg/kg/day).
After continuous administration for 5 days, the mice were anesthetized and dissected 4 hours after the last administration, and the lungs were taken out, fixed with paraformaldehyde and stored for hematoxylin-eosin (HE) section staining.

For `O=C1C(=O)c2nc(O)cc(C(=O)O)c2-c2[nH]ccc21` [SP3101, 4,5-dioxo-4,5-dihydro-1H-pyrrolo[2,3-f]quinone-7-hydroxy-9-carboxylic acid], in experiment [1] (CFA inflammatory pain model, oral), the overall analgesic profile result was “rapid analgesic effect and a long-acting analgesic effect”. In experiment [1] (single oral 20 mg/kg, compared with model group (PC)), the “analgesic effect on day 5-7” value is listed as “the analgesic effect is reduced”. Further, the “duration of the analgesic effect” value in experiment [1] (single oral dose (SP3101 20 mg/kg)) was 72 h. Further, the “analgesic effect 1.5 hours after oral administration” value in experiment [1] (single oral dose (SP3101 20 mg/kg), mechanical pain threshold vs model group) was “obvious analgesic effect”. Besides, in the experiment on AMPK, the “activation of AMPK (expression of p-AMPK)” value was “obviously activate the AMPK”. Besides, the “movement of the mice in an open field (sedative effect)” value in experiment [2] is recorded as “obviously reduces movement of the mice in an open field”. In experiment [3], the “alleviation of cisplatin-induced hyperalgesia” value is “obvious effect of alleviating”. Also, the “inhibition of virus-induced lung inflammation (HE sections)” value in experiment [4] is recorded as “obvious effect of inhibiting virus-induced lung inflammation”.

The values are drawn from patent US20240199601A1, “QUINONE COMPOUND AND PHARMACEUTICAL USE THEREOF” (NANJING SHUPENG LIFE SCIENCE CO., LTD., priority 2021, published 2024).
